Laboratory results published in the supplement of paper PMC10307832.

Experiments:
Assay in all cases: relative viability (nuclei count vs DMSO), 5 days (fraction); higher = more cells survive
TPCA-1 + Vorinostat = compound: C1=CC(=CC=C1C2=CC(=C(S2)NC(=O)N)C(=O)N)F [TPCA-1] + O=C(CCCCCCC(=O)Nc1ccccc1)NO [Vorinostat] (partner 1 µM)
Method in brief: (§1)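 After 5 days of treatment, lung cancer cells in 1536-well plates were fixed and stained in a single step (final 0.05% Triton X-100, 1% formaldehyde, 1 ug/ml Hoechst) and their nuclei counted on 4× images. Treatment had been applied by pin tool the day after seeding as one drug alone or as a fixed anchor-drug dose with five library-drug doses (not always all listed) in √10 steps. Relative viability is the nuclei count of treated wells divided by that of vehicle wells, and values are medians of duplicate plates.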

TPCA-1 + Decitabine = compound: C1=CC(=CC=C1C2=CC(=C(S2)NC(=O)N)C(=O)N)F [TPCA-1] + Nc1ncn([C@H]2C[C@H](O)[C@@H](CO)O2)c(=O)n1 [Decitabine] (partner 2 µM)
Method in brief: as §1

TPCA-1 + Crizotinib = compound: C1=CC(=CC=C1C2=CC(=C(S2)NC(=O)N)C(=O)N)F [TPCA-1] + C[C@@H](Oc1cc(-c2cnn(C3CCNCC3)c2)cnc1N)c1c(Cl)ccc(F)c1Cl [Crizotinib] (partner 1 µM)
Method in brief: as §1

[1] = compound: C[C@]12O[C@H](C[C@]1(O)CO)n1c3ccccc3c3c4c(c5c6ccccc6n2c5c31)CNC4=O [Lestaurtinib] + O=C(CCCCCCC(=O)Nc1ccccc1)NO [Vorinostat] (partner 1 µM)
Method in brief: as §1

Row | Cell Line | relative viability (TPCA-1 + Vorinostat; first compound 0.04 µM) | relative viability (TPCA-1 + Vorinostat; first compound 0.1265 µM) | relative viability (TPCA-1 + Vorinostat; first compound 0.4 µM) | relative viability (TPCA-1 + Vorinostat; first compound 1.265 µM) | relative viability (TPCA-1 + Vorinostat; first compound 4 µM) | relative viability (TPCA-1 + Decitabine; first compound 0.04 µM) | relative viability (TPCA-1 + Decitabine; first compound 0.1265 µM) | relative viability (TPCA-1 + Decitabine; first compound 0.4 µM) | relative viability (TPCA-1 + Decitabine; first compound 1.265 µM) | relative viability (TPCA-1 + Decitabine; first compound 4 µM) | relative viability (TPCA-1 + Crizotinib; first compound 0.04 µM) | relative viability (TPCA-1 + Crizotinib; first compound 0.1265 µM) | relative viability (TPCA-1 + Crizotinib; first compound 0.4 µM) | relative viability (TPCA-1 + Crizotinib; first compound 1.265 µM) | relative viability (TPCA-1 + Crizotinib; first compound 4 µM) | relative viability ([1]; first compound 0.005 µM) | relative viability ([1]; first compound 0.01581 µM) | relative viability ([1]; first compound 0.05 µM) | relative viability ([1]; first compound 0.1581 µM) | relative viability ([1]; first compound 0.5 µM)
1 | NCI-H2170 | 0.965 | 0.881 | 0.779 | 0.724 | 0.628 | 0.493 | 0.433 | 0.444 | 0.453 | 0.385 | 1.33 | 1.15 | 1.16 | 1.13 | 0.583 | 0.745 | 0.69 | 0.536 | 0.521 | 0.199
2 | A549 |  |  |  |  |  | 0.219 | 0.423 | 0.284 | 0.182 | 0.102 | 0.898 | 0.748 | 0.773 | 0.522 | 0.331 |  |  |  |  | 
3 | SW 1573 | 0.998 | 0.6 | 0.876 | 0.787 | 0.233 | 0.621 | 0.402 | 0.438 | 0.677 | 0.395 | 0.881 | 0.754 | 0.728 | 0.673 | 0.622 | 0.767 | 0.864 | 0.488 | 0.424 | 0.198
4 | NCI-H1975 | 0.724 | 0.699 | 0.712 | 0.632 | 0.444 | 0.393 | 0.343 | 0.403 | 0.387 | 0.188 | 0.985 | 0.863 | 0.972 | 0.939 | 0.691 | 0.755 | 0.735 | 0.617 | 0.578 | 0.382
